Reference: patent US10590389B2, “Endodermal cell production method, liver cell production method, pancreatic cell production method, endodermal cell induction promoter, liver cell induction promoting kit, pancreatic cell induction promoting kit, and microfluidic device” (Kyoto University, priority 2014, dated 2020)

Key:
Format in all cases: cell-based
[1] = tested on: H9 cell line (human ES cell); test: Endodermal cell induction from pluripotent cells with or without ROCK activity inhibitory compound (Example 8)
Procedure: On a 24-well dish (growth area: 1.9 cm^2/well, BD Falcon [trademark]), a H9 cell line (obtained from WiCell), which is a human ES cell, was seeded in a dispersed state at a cell density of 1×10^5 cells/well and cultured for 24 hours. The culture conditions were set as follows: 37° C. and 5% CO2. As a culture solution, mTeSR-1 (STEMCELL) containing 10 μmol/l Y27632 (ROCK activity inhibitory compound, Wako) and 100 ng/ml activin A (R&D Systems) was used. To the mTeSR-1A, a penicillin-streptomycin solution (Wako) had been added beforehand so that the mTeSR-1 contained 100 U/ml penicillin and 100 U/ml streptomycin. After the culture, the culture solution used on culture day 1 was removed, and a culture solution with the same composition was further added to each well. The cells were further cultured for one day under the above-described culture conditions. The culture solution used on culture day 2 was removed, and mTeSR-1 containing 10 μmol/l Y27632, 100 ng/ml activin A, 10 ng/ml BMP-4 (R&D Systems), 10 μmol/l LY294002 (PI3K activity inhibitory compound, CAYMAN CHEMICAL COMPANY), and 3 μmol/l CHIR99021 (GSK-3β activity inhibitory compound, STEMGENT) was added. Then, the cells were cultured for 24 hours under the above-described culture conditions. […]

[2] = tested on: H9 cell line (human ES cell); test: Number of endodermal cells produced after induction; details: Example 2; seeding 5×10^4 to 2×10^5 cells/well; dispersed or clusters; 10 μmol/l Y27632; under any of these conditions
Procedure: Differentiation into endodermal cells was induced in the same manner as in Example 1, except that the H9 cell line was seeded at a cell density of 5×10^4 cells/well, 1×10^5 cells/well, or 2×10^5 cells/well. Also, differentiation into endodermal cells was induced in the same manner, except that, instead of the H9 cell line in the dispersed state, a H9 cell line forming cell clusters was seeded. Then, the endodermal cells obtained after the induction were collected. The endodermal cells obtained in (1) above were counted.

[3] = tested on: H9 cell line (human ES cell); test: CXCR4 expression in induced endodermal cells by flow cytometry; details: dispersed or cluster-forming H9 cells, 10 μmol/l Y27632, under any of these conditions
Procedure: On a 24-well dish (growth area: 1.9 cm^2/well, BD Falcon [trademark]), a H9 cell line (obtained from WiCell), which is a human ES cell, was seeded in a dispersed state at a cell density of 1×10^5 cells/well and cultured for 24 hours. The culture conditions were set as follows: 37° C. and 5% CO2. As a culture solution, mTeSR-1 (STEMCELL) containing 10 μmol/l Y27632 (ROCK activity inhibitory compound, Wako) and 100 ng/ml activin A (R&D Systems) was used. To the mTeSR-1A, a penicillin-streptomycin solution (Wako) had been added beforehand so that the mTeSR-1 contained 100 U/ml penicillin and 100 U/ml streptomycin. […] CXCR4 expression in the stained cells was measured using a flow cytometer (BD FACSCanto [trademark] II, BD Biosciences). CXCR4 expression was also measured in the same manner, except that, from culture day 1 to culture day 4, TeSR-E8 or CDM-PVA was used instead of the mTeSR-1. Further, CXCR4 expression was measured in the same manner, except that, instead of the H9 cell line in the dispersed state, the H9 cell line forming cell clusters was seeded on culture day 1. As a control, CXCR4 expression was measured in the same manner, except that an APC-labeled control antibody (clone name: G155-178, BD Pharmigen) was used instead of the anti-human CXCR4 antibody. […] CXCR4 expression in the thus-obtained endodermal cells was measured in the same manner as in (2) in Example 1. […]

C[C@@H](N)[C@H]1CC[C@H](C(=O)Nc2ccncc2)CC1 [Y27632]
probability of induction ([1]; endodermal cell induction examined on culture day 5, 10 μmol/l Y27632 on culture days 1-4): 100% | Number of times endodermal cell induction was performed ([1]; successful inductions / total inductions, examined on culture day 5, 10 μmol/l Y27632 on culture days 1-4 with activin A, BMP-4, LY294002, CHIR99021): 20/20 | number of the endodermal cells obtained after the induction relative to the number of cells of the H9 cell line at the start of the induction [2]: at least six | proportion of the cells positive to the endoderm cell marker CXCR4 ([3]; Example 1, after culture day 5, mTeSR-1, TeSR-E8 or CDM-PVA): ≥ 80.5% | proportion of the cells positive to the endoderm cell marker CXCR4 ([3]; Example 2, seeding 5×10^4, 1×10^5 or 2×10^5 cells/well): ≥ 83.7%
